Results published in patent publication US5733913A, “6-Aryl pyrido[2,3-d] pyrimidines and naphthyridines for inhibiting protein tyrosine kinase mediated cellular proliferation” (priority 1995, dated 1998).
Read-outs that look alike come from different tables or passages of the source.

Columns and labels:
Assay type in all cases: biochemical
[1] = biological target: T1, human FGF-1 (flg) receptor tyrosine kinase (Homo sapiens, UniProt P11362); assay: FGF receptor tyrosine kinase assay; details: for IC50: read-out: Inhibition of Protein Tyrosine Kinases, FGF, IC50; for inhibition at 50 µM: read-out: Inhibition of Protein Tyrosine Kinases, FGF, % Inhibition
T1 construct: a fragment of DNA that codes for the intracellular tyrosine kinase domain; made in house; host or cells: Sf9 insect cells (baculovirus), cell lysate
From the text: (§1) PDGF and FGF Receptor Tyrosine Kinase Assays
(§2) Full length cDNAs for the mouse PDGF-β and human FGF-1 (flg) receptor tyrosine kinases were obtained from J. Escobedo and prepared as described in J. Biol. Chem., 262:1482-1487 (1991), and PCR primers were designed to amplify a fragment of DNA that codes for the intracellular tyrosine kinase domain. The fragment was melded into a baculovirus vector, cotransfected with AcMNPV DNA, and the recombinant virus isolated. SF9 insect cells were infected with the virus to overexpress the protein, and the cell lysate was used for the assay. […] Briefly, to each well was added 82.5 μL of incubation buffer containing 25 mM Hepes (pH 7.0), 150 mM NaCl, 0.1% Triton X-100, 0.2 mM PMSF, 0.2 mM Na3 VO4, 10 mM MnCl2, and 750 μg/mL of Poly (4:1) glutamate-tyrosine followed by 2.5 μL of inhibitor and 5 μL of enzyme lysate (7.5 μg/μL FGF-TK or 6.0 μg/μL PDGF-TK) to initiate the reaction. Following a 10 minute incubation at 25° C., 10 μL of γ^32 P-ATP (0.4 μCi plus 50 μM ATP) was added to each well and samples were incubated for an additional 10 minutes at 25° C. The reaction was terminated by the addition of 100 μL of 30% trichloroacetic acid (TCA) containing 20 mM sodium pyrophosphate and precipitation of material onto glass fiber filter mats (Wallac). […] Nonspecific activity was defined as radioactivity retained on the filters following incubation of samples with buffer alone (no enzyme). Specific enzymatic activity was defined as total activity (enzyme plus buffer) minus nonspecific activity.

C-src kinase = biological target: T2, C-src kinase (Homo sapiens, UniProt P12931); assay: C-src kinase assay; details: for inhibition at 50 µM: read-out: Inhibition of Protein Tyrosine Kinases, C-src, % Inhibition
T2 construct: made in house; host or cells: baculovirus-infected insect cells
Protocol: V-src and C-src Kinase Assays
V-src or C-src kinase is purified from baculovirus infected insect cell lysates using an antipeptide monoclonal antibody directed against the N-terminal 2-17 amino acids. The antibody, covalently linked to 0.65-μm latex beads, is added to a suspension of insect cell lysis buffer comprised of 150 mM NaCl, 50 mM Tris pH 7.5, 1 mM DTT, 1% NP-40, 2 mM EGTA, 1 mM sodium vanadate, 1 mM PMSF, 1 μg/mL each of leupeptin, pepstatin, and aprotinin. […] At the end of the lysate incubation, the beads are rinsed 3 times in lysis buffer, resuspended in lysis buffer containing 10% glycerol, and frozen. These latex beads are thawed, rinsed three times in assay buffer which is comprised of 40 mM tris pH 7.5, 5 mM MgCl2, and suspended in the same buffer. In a Millipore 96-well plate with a 0.65 μm polyvinylidine membrane bottom are added the reaction components: 10-μL v-src or c-src beads, 10 μL of 2.5 mg/mL poly GluTyr substrate, 5 μM ATP containing 0.2 μCi labeled ^32 P-ATP, 5μL DMSO containing inhibitors or as a solvent control, and buffer to make the final volume 125 μL. The reaction is started at room temperature by addition of the ATP and quenched 10 minutes later by the addition of 125 μL of 30% TCA, 0.1M sodium pyrophosphate for 5 minutes on ice. The plate is then filtered and the wells washed with two 250-μL aliquots of 15% TCA, 0.1M pyrophosphate. The filters are punched, counted in a liquid scintillation counter, and the data examined for inhibitory activity in comparison to a known inhibitor such as erbstatin. The method is described more fully in J. Med. Chem., 37:598-609 (1994).

[2] = biological target: T3, mouse PDGF-β receptor tyrosine kinase (Mus musculus, UniProt P05622); assay: PDGF receptor tyrosine kinase assay; details: for IC50: read-out: Inhibition of Protein Tyrosine Kinases, PDGF, IC50; for inhibition at 50 µM: read-out: Inhibition of Protein Tyrosine Kinases, PDGF, % Inhibition
T3 construct: a fragment of DNA that codes for the intracellular tyrosine kinase domain; made in house; host or cells: Sf9 insect cells (baculovirus), cell lysate
From the text: as §1, §2

[3] = read-out: Inhibition of Protein Tyrosine Kinases, C-src, IC50

T1 sequence (P11362 478-767 limits assumed): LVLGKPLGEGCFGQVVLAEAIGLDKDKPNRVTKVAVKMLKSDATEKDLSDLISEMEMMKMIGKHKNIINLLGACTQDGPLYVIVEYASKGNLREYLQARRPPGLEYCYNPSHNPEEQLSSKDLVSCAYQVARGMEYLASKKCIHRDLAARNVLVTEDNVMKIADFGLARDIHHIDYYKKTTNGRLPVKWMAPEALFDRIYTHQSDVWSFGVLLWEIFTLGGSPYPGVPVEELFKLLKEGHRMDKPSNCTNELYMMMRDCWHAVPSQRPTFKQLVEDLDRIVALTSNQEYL
T2 sequence (P12931 whole entry): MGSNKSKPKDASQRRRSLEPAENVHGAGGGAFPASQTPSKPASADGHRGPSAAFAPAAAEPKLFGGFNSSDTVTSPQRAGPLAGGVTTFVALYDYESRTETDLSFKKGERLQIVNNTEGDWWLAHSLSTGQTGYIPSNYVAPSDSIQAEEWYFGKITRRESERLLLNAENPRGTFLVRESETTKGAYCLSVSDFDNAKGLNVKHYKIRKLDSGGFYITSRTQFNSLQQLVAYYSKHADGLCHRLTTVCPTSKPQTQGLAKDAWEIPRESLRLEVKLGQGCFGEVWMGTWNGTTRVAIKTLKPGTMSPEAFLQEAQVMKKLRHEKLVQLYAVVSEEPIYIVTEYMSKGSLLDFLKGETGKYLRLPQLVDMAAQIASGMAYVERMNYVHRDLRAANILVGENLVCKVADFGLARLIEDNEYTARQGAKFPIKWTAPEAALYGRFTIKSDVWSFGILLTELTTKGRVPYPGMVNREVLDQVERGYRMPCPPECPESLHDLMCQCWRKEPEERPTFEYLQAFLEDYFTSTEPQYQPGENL
T3 sequence (P05622 599-961 limits assumed): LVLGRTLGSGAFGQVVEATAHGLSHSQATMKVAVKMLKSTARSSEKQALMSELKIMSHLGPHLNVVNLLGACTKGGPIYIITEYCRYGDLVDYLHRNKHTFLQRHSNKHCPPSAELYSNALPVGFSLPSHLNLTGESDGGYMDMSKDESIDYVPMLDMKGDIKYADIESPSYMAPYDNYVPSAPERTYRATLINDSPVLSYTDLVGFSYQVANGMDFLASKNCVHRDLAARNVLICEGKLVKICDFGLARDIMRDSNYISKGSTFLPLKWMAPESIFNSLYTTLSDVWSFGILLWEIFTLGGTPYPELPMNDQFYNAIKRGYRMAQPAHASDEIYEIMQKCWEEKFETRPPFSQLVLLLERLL

| SMILES | IC50 [1] [nM] | IC50 (C-src kinase; [3]) [nM] | IC50 [2] [nM] | also measured |
| --- | --- | --- | --- | --- |
| CCCNC(=O)Nc1nc2nc(N)ncc2cc1-c1c(Cl)cccc1Cl [Example 26, 1-[2-Amino-6-(2,6-dichlorophenyl)-pyrido[2,3-d]pyrimidin-7-yl]-3-propyl-ure] | 116 | 39.5 | 1080 |  |
| CN(C)CC(C)(C)CNc1ncc2cc(-c3c(Cl)cccc3Cl)c(NC(=O)NC(C)(C)C)nc2n1 [Example 30, 1-tert-Butyl-3-[6-(2,6-dichlorophenyl)-2-[3-dimethylamino-2,2-dimethyl-propylamino)-pyrido[2,3-d]pyrimidin-7-yl]-urea] | 264 |  | 1780 | inhibition at 50 µM (C-src kinase): 46.8% |
| CN1CCN(CCCNc2ncc3cc(-c4c(Cl)cccc4Cl)c(NC(=O)NC4CCCCC4)nc3n2)CC1 [Example 37, 1-Cyclohexyl-3-{6-(2,6-dichlorophenyl)-2-[3-(4-methyl-piperazin-1-yl)-propylamino]-pyrido[2,3-d]pyrimidin-7-yl}-urea] |  |  |  | inhibition at 50 µM (C-src kinase): 106% |
| Nc1ncc2cc(-c3c(Br)cccc3Br)c(N)nc2n1 [Example 60, 6-(2,6-Dibromo-phenyl)-pyrido[2,3-d]pyrimidine-2,7-diamine] | 13000 |  |  | IC50 (C-src kinase): 1570 nM |
| CN(C)C=Nc1ncc2cc(-c3c(Cl)cccc3Cl)c(N=CN(C)C)nc2n1 [Example 80, N'-[6-(2,6-Dichlorophenyl)-7-[(dimethylamino)methylene-amino]-pyrido[2,3-d]pyrimidin-2-yl]-N,N-dimethylformamidine] | 10200 |  |  | inhibition at 50 µM [2]: 22.9% |
| Cc1cc(C)cc(-c2cc3cnc(N)nc3nc2N)c1 [Example 94, 6-(3,5-Dimethyl-phenyl)-pyrido[2,3-d]pyrimidine-2,7-diamine] | 17600 |  |  | inhibition at 50 µM [2]: 11.5% |
| Cc1cc(C)c(-c2cc3cnc(N)nc3nc2N)c(C)c1 [Example 96, 6-(2,4,6-Trimethyl-phenyl)-pyrido[2,3-d]pyrimidine-2,7-diamine] | 3840 |  | 27400 |  |
| Cc1cc(C)c(C)c(-c2cc3cnc(N)nc3nc2NC(=O)NC(C)(C)C)c1C [Example 99, 1-[2-Amino-6-(2,3,5,6-tetramethyl-phenyl)-pyrido[2,3-d]pyrimidin-7-yl]-3-tert-butyl-urea] |  |  |  | inhibition at 50 µM (C-src kinase): 17.1% |
| Nc1ncc2cc(-c3c(Cl)cccc3Br)c(N)nc2n1 [Example 104, 6-(2-Bromo-6-chloro-phenyl)-pyrido[2,3-d]pyrimidine-2,7-diamine] | 5320 |  | 36700 |  |
| Nc1ncc2cc(-c3ccncc3)c(N)nc2n1 [Example 109, 6-Pyridin-4-yl-pyrido[2,3-d]pyrimidine-2,7-diamine] |  |  |  | inhibition at 50 µM [1]: 10.3%; inhibition at 50 µM [2]: 23.6% |
| Cc1cc(C)c(C)c(-c2cc3cnc(NCCCN4CCN(C)CC4)nc3nc2NC(=O)NC(C)(C)C)c1C [Example 121, 1-tert-Butyl-3-{2-[3-(4-methyl-piperazin-1-yl)-propylamino]-6-(2,3,5,6-tetramethyl-phenyl)-pyrido-[2,3-d]pyrimidin-7-yl}-urea] | 142 |  |  | inhibition at 50 µM [2]: 21.8% |
| CCN(CC)CCCCNc1ncc2cc(-c3c(Cl)cccc3Cl)c(NC(=S)NCCCN3CCOCC3)nc2n1 [Example 122, 1-[6-(2,6-Dichlorophenyl)-2-(4-diethylamino-butylamino)-pyrido[2,3-d]pyrimidin-7-yl]-3-(3-morpholin-4-yl-propyl)-thiourea] | 171 |  | 1460 |  |

Now from value to molecule, other results behind:

| IC50 [1] [nM] | IC50 (C-src kinase; [3]) [nM] | IC50 [2] [nM] | SMILES | also measured |
| --- | --- | --- | --- | --- |
|  | 5000 | 415 | CC1CCCCN1CCCNc1ncc2cc(-c3c(Cl)cccc3Cl)c(NC(=O)NC(C)(C)C)nc2n1 (stereo not drawn) [Example 32, 1-tert-Butyl-3-{6-(2,6-dichlorophenyl)-2-[3-(2-methyl-piperidin-1-yl)-propylamino]-pyrido[2,3-d]pyrimidin-7-yl}-urea] |  |
|  | 11 | 349 | CN1CCN(CCCCNc2ncc3cc(-c4c(Cl)cccc4Cl)c(NC(=O)NC(C)(C)C)nc3n2)CC1 [Example 34, 1-tert-Butyl-3-{6-(2,6-dichlorophenyl)-2-[4-(4-methyl-piperazin-1-yl)-butylamino]-pyrido[2,3-d]pyrimidin-7-yl}-urea] |  |
|  |  | 2080 | CN1CCN(CCCNc2ncc3cc(-c4c(Cl)cccc4Cl)c(NC4=NCCCO4)nc3n2)CC1 [Example 35, 6-(2,6-Dichlorophenyl)-N^7-(5,6-dihydro-4H-[1,3]oxazin-2-yl)-N^2-[3-(4-methyl-piperazin-1-yl)-propyl]-pyrido[2,3-d]pyrimidine-2,7-diamine] | inhibition at 50 µM [1]: 97.9% |
| 523 | 184 | 22900 | CN1CCN(CCCNc2ncc3cc(-c4c(Cl)cccc4Cl)c(N)nc3n2)CC1 [Example 36, N^2-[3-(4-methyl-piperazin-1-yl)-propyl]-6-(2,6-dichlorophenyl)-pyrido[2,3-d]pyrimidine-2,7-diamine] |  |
| 47 | 19 | 360 | CC(C)NC(=O)Nc1nc2nc(NCCCN3CCN(C)CC3)ncc2cc1-c1c(Cl)cccc1Cl [Example 38] |  |
|  | 21 |  | CN1CCN(CCCNc2ncc3cc(-c4c(Cl)cccc4Cl)c(NC(=O)NCc4ccccc4)nc3n2)CC1 [Example 39, 1-Benzyl-3-{6-(2,6-dichlorophenyl)-2-[3-(4-methyl-piperazin-1-yl)-propylamino]-pyrido[2,3-d]pyrimidin-7-yl}-urea] |  |
| 57.4 |  | 697 | C=CCNC(=O)Nc1nc2nc(NCCCN3CCN(C)CC3)ncc2cc1-c1c(Cl)cccc1Cl [Example 40, 1-Allyl-3-{6-(2,6-dichlorophenyl)-2-[3-(4-methyl-piperazin-1-yl)-propylamino]-pyrido[2,3-d]pyrimidin-7-yl}-urea] |  |
|  | 86 |  | COc1ccc(NC(=O)Nc2nc3nc(NCCCN4CCN(C)CC4)ncc3cc2-c2c(Cl)cccc2Cl)cc1 [Example 41, 1-{6-(2,6-Dichlorophenyl)-2-[3-(4-methyl-piperazin-1-yl)-propylamino]-pyrido[2,3-d]pyrimidin-7-yl}-3-(4-methoxy-phenyl)-urea] |  |
|  | 32 | 624 | COc1cccc(NC(=O)Nc2nc3nc(NCCCN4CCN(C)CC4)ncc3cc2-c2c(Cl)cccc2Cl)c1 [Example 42, 1-{6-(2,6-Dichlorophenyl)-2-[3-(4-methyl-piperazin-1-yl)-propylamino]-pyrido[2,3-d]pyrimidin-7-yl}-3-(3-methoxy-phenyl)-urea] |  |
| 305 |  | 2600 | CN1CCN(CCCNc2ncc3cc(-c4c(Cl)cccc4Cl)c(NC(=O)Nc4cccc5ccccc45)nc3n2)CC1 [Example 50, 1-{6-(2,6-Dichlorophenyl)-2-[3-(4-methyl-piperazin-1-yl)-propylamino]-pyrido[2,3-d]pyrimidin-7-yl}-3-naphthalen-1-yl-urea] |  |
| 126 |  | 1920 | CN1CCN(CCCNc2ncc3cc(-c4c(Cl)cccc4Cl)c(NC(=S)NC(C)(C)C)nc3n2)CC1 [Example 118, 1-tert-Butyl-3-{6-(2,6-dichlorophenyl)-2-[3-(4-methyl-piperazin-1-yl)-propylamino]-pyrido[2,3-d]pyrimidin-7-yl}-thiourea] |  |
| 7710 |  | 62400 | CCN(CC)C(=O)Nc1nc2nc(NCCCN3CCN(C)CC3)ncc2cc1-c1c(Cl)cccc1Cl [Example 119, 3-{6-(2,6-Dichlorophenyl)-2-[3-(4-methyl-piperazin-1-yl)-propylamino]-pyrido[2,3-d]pyrimidin-7-yl}-1,1-diethyl-urea] |  |
